Reference: US20150305333A1, “USE OF GLUCOSAMINE AMIDES AS PLANT GROWTH AND YIELD ENHANCERS” (PIONEER HI-BRED INTERNATIONAL, INC., priority 2012, published 2015)

What was measured:
[1] = test system: spring wheat (Triticum aestivum); experiment: Spring wheat field trial 2011: emergence, vigor, tillering, biomass, yield; type: in vivo; conditions: for Spring Wheat Crop Vigor (1-5 scale): vigor scale of Example 3; for Spring Wheat Biomass: 82 DAP, aerial portion
Protocol: A field trial was conducted to evaluate the effects of NPG on plant emergence, vigor, tillering, biomass and yield in spring wheat (Triticum aestivum) planted near Breslau, Ontario, Canada, in 2011. Seed treatments included an Untreated Control, 10^−7 M NPG applied as a seed treatment, 10^−7 M NPG followed by two foliar NPG applications, 10^−6 M natural LCO, and 10^−6 M commercial LCO plus a commercial rhizobia inoculant (LCO+RI). The natural LCO was provided by Dr. Don Smith (McGill University, Montreal, Canada) and prepared as described in Example 2. Seed coating was performed by injecting 7 mL of aqueous NPG solution per 100 g wheat seed into a coating machine followed by treatment and drying. […] Seed designated for use as the Untreated Check also received the fungicide maintenance treatment.
Treated seeds were sent to the DuPont Breslau, Ontario Research Station and planted on June 8th in a loam composed of 34% sand, 48% silt and 18% clay and 2.9% organic matter. […] Spring wheat was planted at a rate of 100 kg seeds/ha to a depth of 3 cm. Weeds were controlled using 8.79 wt % fenoxyprop-P-ethyl at a rate of 770 mL/ha and a mixture of 33.33 wt % thifensulfuron methyl and 16.67 wt % tribenuron methyl at a rate of 30 g/ha. Disease was controlled using 23.6 wt % pyraclostrobin fungicide at a rate of 0.4 L/ha. All of the products used are considered industry standards and representative of what is used in commercial production.
The trial was conducted using a randomized complete block design with a plot size of 2.5 m by 8 m with 17.8 cm row spacing, 3.3 cm plant spacing and four replications.
Foliar NPG applications were performed 36 and 49 days after planting. The treatments were sprayed using a 4 nozzle hollow-cone boom and CO2 propellant at a speed of 4.5 km/h and 40 psi. The 36 day application utilized a mix size of 2.0 L and spray rate of 200 L/ha water volume. The 49 day application utilized a mix size of 3.0 L and spray rate of 300 L/ha water volume.
Plant Biomass was determined at 82 DAP by harvesting the entire aerial portion of the plants from each plot (Table 17). A non-statistically significant increase in biomass was determined for the NPG, LCO+RI, and LCO treatments compared to the Untreated Control.
Yield was determined by harvesting the entire 8 m of the plot and transforming the data to kg/ha (Table 18). Yields are not corrected for differences in emergence rates.

[2] = test system: canola seeds; experiment: Petri dish seed germination assay, canola; type: in vivo; conditions: Salt Stress (100 mM NaCl)
Protocol: A series of Petri dish seed assays was conducted to evaluate the effects NPG on the seed germination rates of corn, soybean, and canola seeds subjected to cold stress, salt stress and non-stressed conditions (salt stress only for canola). Assays were performed with ten replications of ten seeds/plate (100 total seeds). NPG was applied to seeds at the specified concentrations prior to being placed in Petri plates. Seeds designated for Salt Stress Experiments 1 & 2 were placed in Petri dishes containing a 100 mM NaCl solution and incubated at 21° C.-22° C. in the dark. Cold stress Petri dishes were incubated at 15° C. in the dark. Untreated Controls were incubated at 21° C.-22° C. in the dark as were seeds utilized in the separately conducted non-stressed germination assays. Data was recorded as percent germination at designated times after plating. Statistical analyses were performed using one-way Anova and Kruskal-Wallis one-way analysis of variance on rank combined with Dunn's all pairwise multiple comparison procedure (α=0.05).

[3] = 10^−7M seed treatment + Foliar, 35 DAP

CCCCCCC=CCCCCCCCC(=O)NC1C(OC)OC(CO)C(O)C1O [NPG, Methyl 2-deoxy-2-N-(hexadece-9,10-cis-eneoyl)-β-D-glucopyranoside]
Spring Wheat Yield ([1]; 10^−7M seed treatment): 1100a kg/ha
Spring Wheat Yield ([1]; 10^−7M seed treatment + Foliar): 1188a kg/ha
Wheat Crop Emergence ([1]; 10^−7M seed treatment + Foliar, 13 DAP): 53a %
Spring Wheat Tillering [1, 3]: 8.0a tillers/plant
Wheat Crop Emergence [1, 3]: 100a %
Spring Wheat Crop Vigor (1-5 scale) [1, 3]: 3.6a
Spring Wheat Crop Vigor (1-5 scale) ([1]; 10^−7M seed treatment + Foliar, 40 DAP): 3.5b
Spring Wheat Crop Vigor (1-5 scale) ([1]; 10^−7M seed treatment + Foliar, 52 DAP): 3.5a
Spring Wheat Biomass ([1]; 10^−7M seed treatment + Foliar): 0.198a kg/plant
Wheat Crop Emergence ([1]; 10^−7M seed treatment, 13 DAP): 53a %
Spring Wheat Tillering ([1]; 10^−7M seed treatment, 35 DAP): 9.0a tillers/plant
Wheat Crop Emergence ([1]; 10^−7M seed treatment, 35 DAP): 100a %
Spring Wheat Crop Vigor (1-5 scale) ([1]; 10^−7M seed treatment, 35 DAP): 3.4a
Spring Wheat Crop Vigor (1-5 scale) ([1]; 10^−7M seed treatment, 40 DAP): 3.5b
Spring Wheat Crop Vigor (1-5 scale) ([1]; 10^−7M seed treatment, 52 DAP): 3.4a
Spring Wheat Biomass ([1]; 10^−7M seed treatment): 0.190a kg/plant
Canola Seed Germination ([2]; 10^−6M, 30 HAP): 14b %
Canola Seed Germination ([2]; 10^−6M, 39 HAP): 67.3ab %
Canola Seed Germination ([2]; 10^−6M, 48 HAP): 84a %
Canola Seed Germination ([2]; 10^−7M, 30 HAP): 22.7ab %
Canola Seed Germination ([2]; 10^−7M, 39 HAP): 80.7a %
Canola Seed Germination ([2]; 10^−7M, 48 HAP): 88.7a %
